The text below walks through data of patent US12458605B2, “Lipid nanoparticle” (National University Corporation Hokkaido University, priority 2020, dated 2025).

A short description of data set [1]: Average particle size and PDI by dynamic light scattering (Zetasizer Nano ZS). It is filed as physicochemical. The procedure:
The average particle size (number-average value) and PDI in PBS(−) and zeta potential in 10 mM HEPES buffer solution (pH 7.4) of lipid nanoparticles were measured using “Zetasizer Nano ZS ZEN3600”, an analyzer utilizing dynamic light scattering (manufactured by Malvern).

The next data set deals with liver. As to the kind of experiment: In vivo Fluc activity of FlucmRNA-loaded LNP by in vivo imaging, liver. The settings on record: Balb/c mice, FlucmRNA-loaded LNP i.v. 0.1 mg mRNA/kg, 6 hours. In short, it runs like this:
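Read-out is average radiance (p/s/cm2/sr, about 560 nm) from whole-animal imaging of liver and spleen 6 h post-dose, after tail-vein luciferin at 1.5 mg/mouse. Dosing was intravenous, 0.1 mg mRNA/kg, in 7-week-old female Balb/c mice.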

The subject of the next data set is F7. Put plainly: In vivo F7 knockdown, plasma F7 enzyme activity (BIOPHEN FVII), Balb/c mice. The following applies: i.v. 0.025 mg siRNA/kg, plasma at 24 hours. The method, boiled down: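 Plasma factor VII activity was read 24 h after a single intravenous 0.025 mg siRNA/kg dose of siRNA-loaded lipid nanoparticles in 5-week-old female Balb/c mice. Activity is relative to untreated animals (100%) and normalised to the MC3 nanoparticle benchmark (=1).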

[2] abbreviates: NlucmRNA-loaded LNP, 60:10:40:1.
The mark [3] stands for this setting: NlucmRNA-loaded LNP, lipid:DSPC:cholesterol:PEG-DMG 60:10:40:1.
Setting [4] is: pFluc-loaded LNP, 50:10:40:1.5, N/P ratio 6.
The mark [5] stands for this setting: pFluc-loaded LNP, 50:10:40:1.5, N/P ratio 9.

Regarding `CCCN(CCC)CCCCC(O)(CCCCCCOC(=O)C(CCC(C)CC(C)(C)C)C(C)CC(C)(C)C)CCCCCCOC(=O)C(CCC(C)CC(C)(C)C)C(C)CC(C)(C)C` (stereo not shown) [CL4G6, 7-(4-(dipropylamino)butyl)-7-hydroxytridecan-1,13-diyl bis(2-(4.4-dimethylpentan-2-yl)-5,7,7-trimethyloctanoate)], the PdI in data set [1] (setting [2]) is given as 0.13; in data set [1] (pFluc-loaded LNP, N/P ratio 6) it was 0.11; in data set [1] (pFluc-loaded LNP, N/P ratio 9), 0.19 ± 0.05. Moreover, the “ζ-Average (nm)” value came to 109.6 nm in data set [1] (setting [3]), 74.48 nm in data set [1] (setting [4]) and 90.6 ± 7 nm in data set [1] (setting [5]). Besides, the “Fluc Activity in liver” value in the data set with liver came out at 4.58E+07 Avg Radiance [p/s/cm2/sr]. The “F7 enzyme activity (%)” value with F7 (untreated mice as 100%) came to 7.6%.

For `CCCCCCCCC(CCCCCC)C(=O)OCCCCCCC(O)(CCCCCCOC(=O)C(CCCCCC)CCCCCCCC)CCCCOC(=O)C1CCN(C)CC1` (stereo not shown) [CL15F6], the PdI in data set [1] (setting [2]) is 0.162; in data set [1] (pFluc-loaded LNP, N/P ratio 6), 0.07; in data set [1] (pFluc-loaded LNP, N/P ratio 9), 0.13 ± 0.02. The “ζ-Average (nm)” value in data set [1] (setting [3]) is recorded as 92.52 nm; in data set [1] (setting [4]) it was 109.4 nm; in data set [1] (setting [5]), 105.7 ± 8.6 nm. Further, the “Fluc Activity in liver” value in the data set with liver is 6.28E+06 Avg Radiance [p/s/cm2/sr]. In the data set with F7 (relative plasma F7 activity of MC3 LNP as 1), the “F7 enzyme activity (Ratio using MC3 as 1)” value is recorded as 1.52.
